In article PMC4323000 (Oncotarget, 2015):
Read-outs that look alike come from different tables or passages of the source.

What was measured:
[1] = test system: HEK-pcDNA3.1 xenografts; experiment: Chemosensitization study, just-established ABCG2-negative tumors
Description: (§1) 4.10^6 HEK-pcDNA3.1 or HEK-ABCG2 cells were sub-cutaneously injected into one flank of each SCID mouse, in solution with 50% matrigel. After the apparition of most tumors, mice were randomly distributed into 4 groups of 20 animals (10 ABCG2 negative and 10 ABCG2-positive tumors). […] Two independent injections were carried out per mouse.
(§2) Treatments were intraperitoneally administered three times a week until mice sacrifice. […] Finally, mice were sacrificed when the tumor diameter reached 17 mm.
(§3) Growth models. Tumor growth curves were modeled with GraphPad© Software. Gaussian distribution models were obtained according to the equation Y = Amplitude*exp (−0.5*((X-Mean)/SD)^2). The amplitude was the height of the center of the distribution in Y units. Mean was the X value at the center of the distribution. SD was a measure of the width of the distribution, in the same units as X. Another model was applied for sum of two Gaussian distributions with Y = one + two (One = Amplitude 1*exp(−0.5*((X-Mean1)/SD1)^2) and Two = Amplitude 2*exp(−0.5*((X-Mean2)/SD2)^2)). Amplitudes were the heights of the center of the distribution in Y units. Means were the X values at the center of the two distributions. SDs were measures of the widths of the distributions, in the same units as X.
(§4) Paired t-test. The statistical test used was the paired t-test. It was applied for all data of growth tumor experiments and pharmacokinetics data.

[2] = Pharmacokinetic study of MBL-II-141, CPT-11 and SN-38 (blood, liver, brain; LC-MS/MS); settings: for Mean of differences in Brain levels, compound alone versus CPT-11 + MBL-II-141 / Mean of differences in Blood levels, compound alone versus CPT-11 + MBL-II-141 / Mean of differences in Liver levels, compound alone versus CPT-11 + MBL-II-141: paired t-test over time; for Mean of differences in Brain levels, compound alone versus CPT-11 + MBL-II-141: P (two tailed): CPT-11 0.0416, MBL-II-141 0.1059; for Mean of differences in Blood levels, compound alone versus CPT-11 + MBL-II-141: P (two tailed): CPT-11 0.3616, SN-38 0.0299, MBL-II-141 0.1555; for Mean of differences in Liver levels, compound alone versus CPT-11 + MBL-II-141: P (two tailed): CPT-11 0.6878, SN-38 0.1727, MBL-II-141 0.1046
Description: In order to achieve possible cumulative effects, reiterated administrations (two or three) were carried out with a 4 h time interval between administrations. Blood samples were collected at either 1 h or 4 h after the last injection.
Total blood samples were collected using dried heparinized syringes, avoiding modification of samples. Blood and plasma were stored at −80°C. […] Tissues were crushed using a dried cold system.
Both assays were performed on a C18 column HypersilGold, (ThermoElectron), 3.0 μm, (100 mm × 2.1 mm i.d.). The mass spectrometry analysis was performed in positive ion mode with electrospray source. […] A volume of 50 μL of whole blood or tissue solution was introduced into a conic centrifuge and 50 μL of solution of the internal standard and 300 μL of cold acetonitrile were added. The sample was mixed and centrifuged for 10 min at 13000 g at 5°C. […] The residues were resuspended in 100 μL of mobile phase and 10 μL were injected into the HPLC device. […] When the concentration was over the upper standard concentration, a dilution of the sample was performed using blank whole blood or appropriate tissues. Peak area ratios of compound to the respective internal standard measured at each nominal concentration were used to construct weighted (1/concentration) least-square linear regression curves. […] Results in tissues were normalized to cellular protein content. Results in tissues were normalized to cellular protein content (C1600 Abott technology).

[3] = test system: ABCG2; settings: cited from earlier work
[4] = test system: ABCG2-overexpressing tumors; settings: ref per compound in Table 2; cited from earlier work
[5] = test system: ABCG2; settings: cited from earlier work; remark: listed apart in the source
[6] = ref per compound in Table 2, cited from earlier work
[7] = cited from earlier work
[8] = MBL-II-141 oral absorption study (force-feeding versus IP); format: in vivo, mouse
Description: The availability of MBL-II-141 was evaluated by force-feeding (n = 4), and compared to intraperitoneal injection (n = 4). CD1 mice were treated with 10 mg/kg of MBL-II-141. After 4 h of treatment, total blood was collected from animals treated with heparin. Samples were stored at −80°C until quantification.
Assay accuracy was in the range of 91–108%. […] Results in tissues were normalized to cellular protein content.

[9] = test system: SCID mice; experiment: MBL-II-141 tolerance assay; format: in vivo
[10] = Solubility for experimental formulation; format: physicochemical
Description: The experimental formulation of MBL-II-141 was determined according to its solubility properties.

[11] = test system: ABCC1; settings: mitoxantrone or calcein as substrates; cited from earlier work
[12] = test system: HEK293 cells; settings: at 100 μM; cited from earlier work
[13] = test system: HEK293-ABCG2 cells; settings: at 100 μM; cited from earlier work
[14] = test system: HEK293-pcDNA3.1 cells; settings: at 100 μM; cited from earlier work
[15] = test system: HEK-ABCG2 xenografts; experiment: Chemosensitization of just-established ABCG2-positive tumors
Description: as §1, §2, §3, §4

[16] = test system: HEK293 ABCG2 xenografts; experiment: Chemosensitization of well-established (8 mm) ABCG2-positive tumors; settings: for slope of tumor growth: solvents 61 ± 3
Description: 1.10^6 HEK ABCG2 cells were sub-cutaneously injected into one flank of each SCID mouse, in solution with 30% matrigel. […] Each group contained 10 mice. The same protocol of treatment and follow-up were applied.
Tumor growth curves were modeled with GraphPad© Software. Gaussian distribution models were obtained according to the equation Y = Amplitude*exp (−0.5*((X-Mean)/SD)^2). The amplitude was the height of the center of the distribution in Y units. Mean was the X value at the center of the distribution. SD was a measure of the width of the distribution, in the same units as X. Another model was applied for sum of two Gaussian distributions with Y = one + two (One = Amplitude 1*exp(−0.5*((X-Mean1)/SD1)^2) and Two = Amplitude 2*exp(−0.5*((X-Mean2)/SD2)^2)). Amplitudes were the heights of the center of the distribution in Y units. Means were the X values at the center of the two distributions. SDs were measures of the widths of the distributions, in the same units as X.
The statistical test used was the paired t-test. It was applied for all data of growth tumor experiments and pharmacokinetics data.

[17] = MBL-II-141 alone 10 mg/kg + PBS
[18] = combination MBL-II-141 10 mg/kg + CPT-11 20 mg/kg
[19] = MBL-II-141 10 mg/kg IP, SCID mice

## CCc1c2c(nc3ccc(OC(=O)N4CCC(N5CCCCC5)CC4)cc13)-c1cc3c(c(=O)n1C2)COC(=O)[C@]3(O)CC [CPT-11, irinotecan]
[1]; CPT-11 alone 20 mg/kg
  effect on growth of ABCG2-negative cells (tumors): completely blocked
  survival of mice bearing ABCG2-negative tumors: 100%
[2]; CPT-11 20 mg/kg + MBL-II-141 10 mg/kg IP
  increase of CPT-11 brain levels in the presence of MBL-II-141: approximately 2 fold
[2]; CPT-11 20 mg/kg IP
  fraction lost from the blood at 4 h: 90%
[2]
  Mean of differences in Brain levels, compound alone versus CPT-11 + MBL-II-141: -2.085
  Mean of differences in Blood levels, compound alone versus CPT-11 + MBL-II-141: -220.0
  Mean of differences in Liver levels, compound alone versus CPT-11 + MBL-II-141: -28.86

## COc1cc2c(cc1OC)CN(CCc1ccc(NC(=O)c3cccc4c(=O)c5cccc(OC)c5[nH]c34)cc1)CC2 [GF120918]
[3]; ref per compound in Table 2
  In vitro ABCG2 Specificity: No
[4]
  In vivo Impact on Tumor growth: Yes
[5]; read-out: In vitro Inhibition (IC50), substrate Mitoxantrone, ref [13],[21],[35],[45]–[48] (GF120918), [7] (Triclabendazole)
  IC50: 310 nM

## COc1ccc2c3c([nH]c2c1)[C@H](CC(C)C)N1C(=O)[C@H](CCC(=O)OC(C)(C)C)NC(=O)[C@@H]1C3 [Ko143]
[3]; ref per compound in Table 2
  In vitro ABCG2 Specificity: Yes
[5]; read-out: In vitro Inhibition (IC50), substrate Hoechst 3342, ref [6],[24],[49] (Ko143), [40] (YHO-13177)
  IC50: […]
[5]; read-out: In vitro Inhibition (IC50), substrate Pheophorbide A, ref [6],[24],[49]
  IC50: […]
[6]; I.P.
  In vivo Toxicity, Acute: […]
[6]; oral
  In vivo Toxicity, Acute: > 50 mg/kg oral
[7]; ABCB1(−/−) mice
  increase of topotecan plasma levels (oral availability): […]
[7]; of Topotecan, ref [13],[21],[35],[45]–[48] (GF120918), [6],[24],[49] (Ko143)
  In vivo Impact on Pharmacokinetics: Topotecan: Yes

## COc1ccc2[nH]cc(CCNC(=O)c3cc(=O)c4c(OCc5ccc(Br)cc5)cccc4o3)c2c1 [MBL-II-141, 5-(4-bromobenzyloxy)-2-(2-(5-methoxyindolyl)ethyl-1-carbonyl)-4H-chromen-4-one]
[8]; 10 mg/kg, difference not significant
  blood level at 4 h under force-feeding in comparison to IP route (lower): approximately 2 fold
[8]; oral (force-feeding), mice
  In vivo Toxicity, Acute: > 10 mg/kg oral
[9]; 10 mg/kg per mouse
  acute toxicity in pilot study: no acute toxicity
[9]; 50 mg/kg 3 times a week for 1 month
  finding in the peritoneal cavity: slight deposit
[9]; 10, 30 or 50 mg/kg with CPT-11 20 mg/kg
  macroscopic analysis of organs (brain, heart, lungs, kidneys, liver and spleen): no apparent lesions
[9]; I.P., mice
  In vivo Toxicity, Acute: > 50 mg/kg I.P.
[9]; IP 10, 30 or 50 mg/kg in combination with CPT-11 20 mg/kg
  behavior (physical activity, appearance): did not show any modification in behavior
[9]; at 50 mg/kg, preliminary data
  tolerance: well tolerated
[9]; regardless of the administered dose of MBL-II-141 (10, 30, 50 mg/kg)
  complete blood count proportion: unchanged
[9]; reiterated administrations
  safety on reiterated administrations: without any associated animal death or loss of weight
[10]
  maximal solubility in DMSO: 250 mg/mL
[11]
  effect on ABCC1-mediated transport: without any effect
[12]
  cell death of HEK293 cells: less than 25%
[13]
  cell survival: 60%
[14]
  cell survival: 75%
[3]; MBL-II-141
  In vitro ABCG2 Specificity: Yes
[5]
  type of ABCG2 inhibition towards mitoxantrone: non-competitive
[5]; read-out: IC50, inhibition of ABCG2 (mitoxantrone efflux), substrate mitoxantrone
  IC50: 110 nM
[15]; HEK-ABCG2, paired t-test P (two tailed) 0.015, 95% CI 16.93 to 138.1
  Mean of differences between tumor growth curves, vehicles versus MBL-II-141 alone: 77.51
[15]; MBL-II-141 10 mg/kg + CPT-11 20 mg/kg IP three times a week, freshly implanted tumors, SCID mice
  ABCG2-positive tumors whose growth was completely blocked: 90%
[15]; MBL-II-141 10 mg/kg + CPT-11 20 mg/kg, even 40 days after end of treatment
  survival rate of mice bearing ABCG2-positive tumors: 90%
[15]; [17]
  inhibitory effect on growth of ABCG2-positive tumors: not observed
[15]; with CPT-11, ABCG2-positive xenografts
  In vivo Impact on Tumor growth: Yes
[1]; HEK-pcDNA3.1, paired t-test P (two tailed) 0.0006, 95% CI 171.0 to 512.9
  Mean of differences between tumor growth curves, vehicles versus MBL-II-141 alone: 342
[1]; [17]
  effect on growth of ABCG2-negative tumors: slight inhibitory effect
[16]; [18]
  mice survival: markedly increased
  time at which tumors reached maximal size versus CPT-11 alone: about two weeks later
  slope of tumor growth: 41 ± 1 mm^3/day
[16]; paired t-test P (two tailed) < 0.0001, 95% CI 54.71 to 135.0
  Mean of differences between tumor growth curves, Solvents versus MBL-II-141: 94.84
[16]; paired t-test P (two tailed) < 0.0001, 95% CI 162.2 to 329.4
  Mean of differences between tumor growth curves, CPT-11 versus MBL-II-141 + CPT-11: 245.8
[16]; paired t-test P (two tailed) < 0.0001, 95% CI 177.3 to 460.0
  Mean of differences between tumor growth curves, Solvents versus MBL-II-141 + CPT-11: 318.6
[16]; paired t-test P (two tailed) < 0.0001, 95% CI 240.1 to 562.7
  Mean of differences between tumor growth curves, MBL-II-141 versus MBL-II-141 + CPT-11: 401.4
[16]; single agent (MBL-II-141 10 mg/kg or CPT-11 20 mg/kg) three times a week
  slope of tumor growth: 68 ± 3 mm^3/day
[2]; 10 mg/kg IP, injections separated by 4 h, blood 1 h or 4 h after last injection
  blood level after the third injection versus one or two injection(s): slight increase
[2]; 30 min
  Brain/Plasma ratio, fold-change induced by the combination treatment: 1.1 fold-change
  Liver/Plasma ratio, fold-change induced by the combination treatment: 2.5 fold-change
[2]; 60 min
  Brain/Plasma ratio, fold-change induced by the combination treatment: 0.3 fold-change
  Liver/Plasma ratio, fold-change induced by the combination treatment: 0.8 fold-change
[2]; 120 min
  Brain/Plasma ratio, fold-change induced by the combination treatment: 0.4 fold-change
  Liver/Plasma ratio, fold-change induced by the combination treatment: 1.1 fold-change
[2]; 240 min
  Brain/Plasma ratio, fold-change induced by the combination treatment: 3.0 fold-change
  Liver/Plasma ratio, fold-change induced by the combination treatment: 3.0 fold-change
[2]; [19]
  level in total blood at 6 h: below the detection limit
  time of highest level in total blood: 0.5 h
[2]; MBL-II-141 10 mg/kg IP, SCID mice, 10 mg/kg
  distribution into the brain: low, but still detectable
[2]; of CPT-11, SCID mice
  In vivo Impact on Pharmacokinetics: CPT-11: Yes
[2]
  Mean of differences in Brain levels, compound alone versus CPT-11 + MBL-II-141: 38.53
  Mean of differences in Blood levels, compound alone versus CPT-11 + MBL-II-141: 122.0
  Mean of differences in Liver levels, compound alone versus CPT-11 + MBL-II-141: -39.78
